Results reported in ChEMBL document CHEMBL1201862, “PubChem BioAssay data set” (2004).
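96-well plates; 48 h exposure; 5 concentrations. Endpoints by linear interpolation between flanking doses. Not reached: highest tested concentration assigned. Here, GI50 denotes the concentration required for 50% inhibition of growth.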 Calls of active or inactive are those of the source. Rule as the data show it: active = GI50 up to about 1.1 µM and inactive = higher.

Legend:
Experiment in all cases: growth of human tumour cells (NCI), 48 h
M14 = test system: M14
A549 = test system: A549
T47D = test system: T47D
MDA-MB-231 = test system: MDA-MB-231
U-251 = test system: U-251
SNB-19 = test system: SNB-19
A498 = test system: A498
IGROV-1 = test system: IGROV-1
SK-MEL-2 = test system: SK-MEL-2
MDA-N = test system: MDA-N
OVCAR-8 = test system: OVCAR-8
SF-539 = test system: SF-539
HCT-116 = test system: HCT-116
SR = test system: SR
NCI-H23 = test system: NCI-H23
SN12C = test system: SN12C
HT-29 = test system: HT-29
COLO 205 = test system: COLO 205
UACC-257 = test system: UACC-257

For `Cc1ccc2c(O)cc(-c3csc4ccccc34)nc2n1`, the GI50 (M14) was < 0.01 µM (active), the GI50 (A549) was 0.0164 µM (active) and the GI50 (T47D) was 21.2 µM (inactive). For the same molecule, the GI50 (MDA-MB-231) was 0.021 µM (active), the GI50 (U-251) was < 0.01 µM (active) and the GI50 (SNB-19) was < 0.01 µM (active). For the same molecule, the GI50 (A498) was < 0.01 µM (active), the GI50 (IGROV-1) was 0.0362 µM (active) and the GI50 (SK-MEL-2) was 0.0139 µM (active). The GI50 (MDA-N) was < 0.01 µM (active), the GI50 (OVCAR-8) was 0.0202 µM (active) and the GI50 (SF-539) was < 0.01 µM (active). For the same molecule, the GI50 (HCT-116) was < 0.0104 µM (active), the GI50 (SR) was < 0.01 µM (active) and the GI50 (NCI-H23) was 0.0274 µM (active). For the same molecule, the GI50 (SN12C) was 0.0323 µM (active), the GI50 (HT-29) was 0.0173 µM (active) and the GI50 (COLO 205) was 0.0239 µM (active).
For `CSc1nc(SC)c2c(CN=[N+]=[N-])c(Br)n(Cc3ccccc3)c2n1`, the GI50 (M14) was > 100 µM (inactive), the GI50 (A549) was > 100 µM (inactive) and the GI50 (T47D) was 11.7 µM (inactive). For the same molecule, the GI50 (MDA-MB-231) was 52.7 µM (inactive), the GI50 (U-251) was 71.9 µM (inactive) and the GI50 (SNB-19) was > 100 µM (inactive). For the same molecule, the GI50 (A498) was > 100 µM (inactive), the GI50 (IGROV-1) was > 100 µM (inactive) and the GI50 (SK-MEL-2) was > 100 µM (inactive). The GI50 (MDA-N) was 99.3 µM (inactive), the GI50 (OVCAR-8) was > 100 µM (inactive) and the GI50 (SF-539) was 32.8 µM (inactive). The GI50 (HCT-116) was 45.6 µM (inactive), the GI50 (SR) was 26 µM (inactive) and the GI50 (NCI-H23) was > 100 µM (inactive). For the same molecule, the GI50 (SN12C) was > 100 µM (inactive), the GI50 (HT-29) was 23 µM (inactive) and the GI50 (COLO 205) was > 100 µM (inactive).
`O=C1c2cc3c(cc2CC12Cc1cc4c(cc1C2=O)CCC4)CCCC3` (stereo unspecified) was tested, and the GI50 (M14) was > 100 µM (inactive), the GI50 (A549) was > 100 µM (inactive) and the GI50 (T47D) was > 100 µM (inactive). The GI50 (UACC-257) was > 100 µM (inactive), the GI50 (MDA-MB-231) was > 100 µM (inactive) and the GI50 (U-251) was 89.1 µM (inactive). The GI50 (SNB-19) was > 100 µM (inactive), the GI50 (A498) was > 100 µM (inactive) and the GI50 (IGROV-1) was > 100 µM (inactive). The GI50 (SK-MEL-2) was > 100 µM (inactive), the GI50 (MDA-N) was > 100 µM (inactive) and the GI50 (OVCAR-8) was > 100 µM (inactive). The GI50 (SF-539) was > 100 µM (inactive), the GI50 (HCT-116) was > 100 µM (inactive) and the GI50 (SR) was > 100 µM (inactive). For the same molecule, the GI50 (NCI-H23) was > 100 µM (inactive) and the GI50 (HT-29) was > 100 µM (inactive).
For `CC1C[C@]2(C)C(NCCN)=Nc3ccccc3[C@@H]2N(C)c2ccccc21` (stereo partly specified), the GI50 (M14) was 1.9 µM (inactive), the GI50 (A549) was 16.4 µM (inactive) and the GI50 (T47D) was 15.1 µM (inactive). The GI50 (UACC-257) was 5.04 µM (inactive), the GI50 (MDA-MB-231) was 8.57 µM (inactive) and the GI50 (SNB-19) was 13.4 µM (inactive). The GI50 (A498) was 16.5 µM (inactive), the GI50 (IGROV-1) was 14.1 µM (inactive) and the GI50 (SK-MEL-2) was 17.2 µM (inactive). The GI50 (MDA-N) was 13.9 µM (inactive), the GI50 (OVCAR-8) was 14.7 µM (inactive) and the GI50 (SF-539) was 12.4 µM (inactive). For the same molecule, the GI50 (HCT-116) was 8.32 µM (inactive), the GI50 (SR) was 2.81 µM (inactive) and the GI50 (NCI-H23) was 16.7 µM (inactive). For the same molecule, the GI50 (SN12C) was 14.4 µM (inactive), the GI50 (HT-29) was 3.36 µM (inactive) and the GI50 (COLO 205) was 2.23 µM (inactive).
`NCCCNOCCCN` was tested, and the GI50 (M14) was > 100 µM (inactive), the GI50 (A549) was > 100 µM (inactive) and the GI50 (T47D) was > 100 µM (inactive). For the same molecule, the GI50 (MDA-MB-231) was > 100 µM (inactive), the GI50 (U-251) was 43.7 µM (inactive) and the GI50 (SNB-19) was > 100 µM (inactive). The GI50 (A498) was > 100 µM (inactive), the GI50 (SK-MEL-2) was > 100 µM (inactive) and the GI50 (MDA-N) was > 100 µM (inactive). The GI50 (OVCAR-8) was > 100 µM (inactive), the GI50 (SF-539) was > 100 µM (inactive) and the GI50 (HCT-116) was > 100 µM (inactive). The GI50 (SR) was 2.26 µM (inactive), the GI50 (NCI-H23) was > 100 µM (inactive) and the GI50 (SN12C) was > 100 µM (inactive). The GI50 (HT-29) was > 100 µM (inactive) and the GI50 (COLO 205) was > 100 µM (inactive).
`OC1c2ccccc2CCC1CN1CCN(CCOC(c2ccc(F)cc2)c2ccc(F)cc2)CC1` (stereo unspecified) was tested, and the GI50 (M14) was 10.9 µM (inactive), the GI50 (A549) was 23.6 µM (inactive) and the GI50 (T47D) was 12.5 µM (inactive). The GI50 (UACC-257) was 14.7 µM (inactive), the GI50 (MDA-MB-231) was 13.8 µM (inactive) and the GI50 (U-251) was 13.8 µM (inactive). The GI50 (SNB-19) was 31.6 µM (inactive), the GI50 (A498) was 12.3 µM (inactive) and the GI50 (IGROV-1) was 17.9 µM (inactive). The GI50 (SK-MEL-2) was 16.6 µM (inactive), the GI50 (MDA-N) was 15.8 µM (inactive) and the GI50 (OVCAR-8) was 14.3 µM (inactive). The GI50 (SF-539) was 0.186 µM (active), the GI50 (HCT-116) was 8.22 µM (inactive) and the GI50 (SR) was 2.53 µM (inactive). The GI50 (NCI-H23) was 14.5 µM (inactive), the GI50 (SN12C) was 13.1 µM (inactive) and the GI50 (COLO 205) was 1.72 µM (inactive).
